In patent publication US12454541B2, “Reagent for measuring oxygen concentration in cell and tissue” (NATIONAL UNIVERSITY CORPORATION GUNMA UNIVERSITY, priority 2019, dated 2025):

Key:
HT-29 cells = test: Tracing of intracellular oxygen by phosphorescence lifetime of C6-BEDA in HT-29 cells using a plate reader; type: cell-based; settings: for change of phosphorescence lifetime of C6-BEDA in cells after additive: C6-BEDA 500 nM, plate sealed with oil, excitation 480 nm, measurement 600 nm; for change of phosphorescence lifetime of C6-BEDA in cells after additive / change of intracellular oxygen partial pressure after additive: antimycin A 10 μM or FCCP 1 μM; for change of intracellular oxygen partial pressure after additive: converted from C6-BEDA phosphorescence lifetime with calibration curve
Procedure: (§1) Luminescence intensity, luminescence lifetime: microplate reader, Infinite 200 PRO; manufactured by TECAN.
Using a luminescence lifetime measurement mode of a commercially available plate reader, changes in the oxygen concentration in cells were traced. In a 96-well plate, HT-29 cells were plated at 50,000 cells/well, and cultured for 48 hours. Thereafter, C6-BEDA was added thereto to a final concentration of 500 nM, and culture was carried out for 2 hours. […] After sealing the plate with oil, the phosphorescence lifetime was measured using a plate reader (excitation wavelength, 480 nm; measurement wavelength, 600 nm; FIG. 6). The phosphorescence lifetime (τp/μs) was calculated using the following equation. τp=30/ln(W1/W2)
Here, W1 and W2 are the integrated values of the phosphorescence intensity obtained during the periods of 10 to 30 μs and 40 to 60 μs after the pulse excitation. In the cells to which no additive was added, the phosphorescence lifetime increased with time. […] This is due to the fact that intracellular oxygen consumption was stopped by the respiration inhibitory action of antimycin A, while intracellular oxygen consumption increased by the respiration-promoting action of FCCP. In order to convert the measured phosphorescence lifetime to the oxygen partial pressure, preparation of a calibration curve is necessary. Here, the calibration curve was prepared by measuring the phosphorescence lifetime at different oxygen partial pressures in the plate reader (pO2=1521.03225 exp(−τp/[…])) (FIG. 7).

[1] = Photophysical properties of iridium complexes in a solution (absorption, phosphorescence spectrum, quantum yield, lifetime); type: physicochemical; settings: for maximum absorption wavelength λabs / maximum emission (phosphorescence) wavelength λphos / molecular extinction coefficient ε: in acetonitrile at room temperature; for molecular extinction coefficient ε: at λabs; for phosphorescence lifetime τp / phosphorescence quantum yield Φp: in acetonitrile, under deoxidized conditions
Source text: Photophysical properties of the phosphorescence of the compound represented by General Formula (I) or (II), such as the maximum absorption/phosphorescence wavelength, the phosphorescence quantum yield (Φp), and the phosphorescence lifetime (τp), can be measured by known measurement methods. For example, the maximum absorption/phosphorescence wavelength can be measured using a spectrophotometer or the like, and the phosphorescence quantum yield can be measured using a luminescence quantum yield measurement apparatus or the like, for a sample in which the compound represented by General Formula (I) or (II) is dissolved in a solvent or the like. Regarding the phosphorescence lifetime, the […] (τp) of the compound in each solvent can be measured using a phosphorescence lifetime measurement apparatus.
Absorption spectrum: ultraviolet and visible spectrophotometer, Ubest-550; manufactured by JASCO Corporation
Phosphorescence spectrum: multichannel spectroscope, PMA-12; manufactured by Hamamatsu Photonics K. K.
Phosphorescence quantum yield: luminescence quantum yield measurement apparatus, C9920-01; manufactured by Hamamatsu Photonics K. K.
Phosphorescence lifetime: compact fluorescence lifetime measurement apparatus, Quantaurus-Tau; manufactured by Hamamatsu Photonics K.K.
The maximum absorption wavelength (λabs) was found at 473 to 499 nm, and the molecular extinction coefficient (ε/dm^3 mol^−1 cm^−1) was not less than 70,000 dm^3 mol^−1 cm^−1. The maximum emission wavelength (λphos) was found at 577 to 622 nm. […] Therefore, the observed luminescence can be identified as a phosphorescence. […] These are higher quantum yields compared to those of the iridium complexes that have been reported so far.

HeLa cells = test: Phosphorescence imaging and microplate-reader phosphorescence intensity of HeLa cells with added iridium complex; type: cell-based; settings: for phosphorescence intensity in imaging under oxygen partial pressure of 2.5% (intracellular oxygen responsiveness): HeLa cells, 500 nM, 2 hours culture, 2.5% vs 21% oxygen; for phosphorescence intensity in HeLa cells (comparison between complexes): final concentration 500 nM, 2 hours of culture, imaging and microplate reader
Procedure: Luminescence micrograph: inverted research microscope, IX-71; manufactured by Olympus Corporation
as §1
Using the iridium complexes developed, imaging experiments for living cells were carried out. […] For quantitative evaluation, the phosphorescence intensity was measured using a microplate reader (FIG. 4).
For C6-BEDA and C545T-BEDA, intracellular oxygen responsiveness was evaluated. […] Further, as a result of measurement of the phosphorescence intensity using a microplate reader, it was shown that the phosphorescence intensity increases 3-fold or more under an oxygen partial pressure of 2.5% (FIG. 4).

liver of a mouse = test: Phosphorescence lifetime imaging (PLIM) of liver of mouse after tail vein administration; type: in vivo; settings: mouse under anesthesia, 250 nmol, excitation 488 nm
Procedure: Subsequently, the in vivo dynamics was evaluated. In the present experiment, a microscope capable of acquiring a phosphorescence lifetime image as well as a phosphorescence intensity image (PLIM: phosphorescence lifetime imaging microscope) was used. To the tail vein of a mouse under anesthesia, 250 μL of a solution of C6-MEDA or C6-BEDA (physiological saline:DMSO=9:1, v/v, 250 nmol) was administered to carry out a phosphorescence intensity imaging experiment and a phosphorescence lifetime imaging experiment (excitation wavelength, 488 nm; monitoring wavelength, 510 to 560 nm). […] The liver is composed of functional units called hepatic lobules. Arteries and portal veins are present in the periphery of hepatic lobules, and veins are present in the center. It has thus been pointed out that there is a gradient of the oxygen partial pressure from the periphery to the center. […] It can be seen that the area with a short lifetime (which is blue in the color image) corresponds to the periphery of hepatic lobules, and that the area with a long lifetime (which is orange in the color image) corresponds to the area near the central vein.

kidney of a mouse = test: Phosphorescence intensity and lifetime imaging (PLIM) of kidney of mouse after tail vein administration; type: in vivo; settings: mouse under anesthesia, 250 nmol, excitation 488 nm

| maximum absorption wavelength λabs [1] | maximum emission (phosphorescence) wavelength λphos [1] | molecular extinction coefficient ε [1] | phosphorescence lifetime τp [1] | phosphorescence quantum yield Φp [1] | Molecule | change of phosphorescence lifetime of C6-BEDA in cells after additive (HT-29 cells) | change of intracellular oxygen partial pressure after additive (HT-29 cells) | phosphorescence intensity in imaging under oxygen partial pressure of 2.5% (intracellular oxygen responsiveness) (HeLa cells) | phosphorescence intensity in HeLa cells (comparison between complexes) (HeLa cells) | suitability as probe for intracellular oxygen concentration (HT-29 cells; 500 nM, plate reader) | phosphorescence lifetime imaging of liver (liver of a mouse) | imaging of kidney (kidney of a mouse) |
| --- | --- | --- | --- | --- | --- | --- | --- | --- | --- | --- | --- | --- |
|  |  |  |  |  | N#CC(C#N)=NNc1ccc(OC(F)(F)F)cc1 [FCCP] | remarkably increased | rapid decrease in the oxygen partial pressure |  |  |  |  |  |
| 482 nm | 594 nm | 106,000 dm^3mol^−1cm^−1 | 34.8 μs | 0.65 | Bis[3-(benzo[d]thiazol-2-yl)-7-(diethylamino)-2H-chromen-2-one-κN, κC^4]N^1,N^2-dibutylethane-1,2-diamine iridium(III) hexafluorophosphate [C6-BEDA] |  |  | remarkable increases in the phosphorescence intensity | exhibit higher phosphorescence intensities | capable of real-time tracing of changes in the intracellular oxygen concentration | the presence of the gradient of the phosphorescence lifetime can be seen |  |
| 481 nm | 593 nm | 103,000 dm^3mol^−1cm^−1 | 38.7 μs | 0.75 | Bis[3-(benzo[d]thiazol-2-yl)-7-(diethylamino)-2H-chromen-2-one-κN, κC^4]N^1,N^2-dimethylethane-1,2-diamine iridium(III) hexafluorophosphate [C6-MEDA] |  |  |  |  |  |  | Renal tubular cells could be clearly imaged |
| 473 nm | 577 nm | 91,700 dm^3mol^−1cm^−1 | 38.9 μs | 0.82 | Bis[3-(benzo[d]thiazol-2-yl)-7-(diethylamino)-2H-chromen-2-one-κN, κC^4]ethane-1,2-diamine iridium(III) hexafluorophosphate [C6-EDA] |  |  |  |  |  |  |  |
|  |  |  |  |  | antimycin A | hardly changed | slight increase in the oxygen partial pressure |  |  |  |  |  |

| Molecule | maximum absorption wavelength λabs [1] | maximum emission (phosphorescence) wavelength λphos [1] | molecular extinction coefficient ε [1] | phosphorescence lifetime τp [1] | phosphorescence quantum yield Φp [1] | change of phosphorescence lifetime of C6-BEDA in cells after additive (HT-29 cells) | change of intracellular oxygen partial pressure after additive (HT-29 cells) | phosphorescence intensity in imaging under oxygen partial pressure of 2.5% (intracellular oxygen responsiveness) (HeLa cells) | phosphorescence intensity in HeLa cells (comparison between complexes) (HeLa cells) | suitability as probe for intracellular oxygen concentration (HT-29 cells; 500 nM, plate reader) | phosphorescence lifetime imaging of liver (liver of a mouse) | imaging of kidney (kidney of a mouse) |
| --- | --- | --- | --- | --- | --- | --- | --- | --- | --- | --- | --- | --- |
| CC1(C)CCN2CCC(C)(C)c3c2c1cc1[c-]c(-c2nc4ccccc4s2)c(=O)oc31.CC1(C)CCN2CCC(C)(C)c3c2c1cc1[c-]c(-c2nc4ccccc4s2)c(=O)oc31.CCCCNCCNCCCC.F[P-](F)(F)(F)(F)F.[Ir+3] [C545T-BEDA, Bis[10-(benzo[d]thiazol-2-yl)-1,1,7,7-tetramethyl-2,3,6,7-tetrahydro-1H-pyrano [2,3-f]pyrido[3,2,1-ij]quinolin-11(5H)-one-κN, κC^4]N^1,N^2-dibutylethane-1,2-diamine iridium(III) hexafluorophosphate] | 499 nm | 622 nm | 90,600 dm^3mol^−1cm^−1 | 53.7 μs | 0.40 |  |  | remarkable increases in the phosphorescence intensity | exhibit higher phosphorescence intensities |  |  |  |
| CC1(C)CCN2CCC(C)(C)c3c2c1cc1[c-]c(-c2nc4ccccc4s2)c(=O)oc31.CC1(C)CCN2CCC(C)(C)c3c2c1cc1[c-]c(-c2nc4ccccc4s2)c(=O)oc31.CNCCNC.F[P-](F)(F)(F)(F)F.[Ir+3] [C545T-MEDA, Bis[10-(benzo[d]thiazol-2-yl)-1,1,7,7-tetramethyl-2,3,6,7-tetrahydro-1H-pyrano [2,3-f]pyrido[3,2,1-ij]quinolin-11(5H)-one-κN, κC^4]N^1,N^2-dimethylethane-1,2-diamine iridium(III) hexafluorophosphate] | 496 nm | 621 nm | 77,000 dm^3mol^−1cm^−1 | 46.5 μs | 0.36 |  |  |  |  |  |  |  |
